Paper PMC10056611, “Synthesis and Biological Evaluation of 3-Amino-4,4-Dimethyl Lithocholic Acid Derivatives as Novel, Selective, and Cellularly Active Allosteric SHP1 Activators” (Molecules, 2023)
“And” between values parts separate entries of the source, which are not always exact repeats. Equal values may be shown once.

Legend:
SHP1 = SHP1 (Homo sapiens, UniProt P29350); test: SHP1 enzyme assay (DiFMUP fluorogenic substrate), activation; type: biochemical; settings: DiFMUP assay; for EC50 / Maximum Activation Fold: mean ± SEM
From the text: The SHP1-activating effects of the synthetic compounds were examined by the 6,8-difluoro-4-methylumbelliferyl phosphate (DiFMUP) assay.
The proteins SHP1 and SHP2, containing a GST-tag, were expressed in E. coli. 6,8-Difluoro-4-methylumbelliferyl phosphate (DiFMUP) was used as the fluorogenic substrate. Fluorescence data were collected by the Envision (PerkinElmer, Waltham, MA, USA) plate reader, using excitation and emission wavelengths of 358 and 455 nm, respectively. A sigmoidal dose-response curve was fitted to the data, and the EC50 values were calculated using GraphPad Prism. In the data processing, the fitting and curves were calculated using nonlinear regression, and the fold value of the compound was calculated using the software GraphPad Prism 8. The folds were obtained according to the equation: Y = Bottom + (Top-Bottom)/(1 + 10^((LogEC50-X) × HillSlope)). The data represent mean values ± standard error of the mean (SEM) of eight-point experiments, each performed in triplicates from three independent experiments.

Chain of SHP1 (P29350 whole entry): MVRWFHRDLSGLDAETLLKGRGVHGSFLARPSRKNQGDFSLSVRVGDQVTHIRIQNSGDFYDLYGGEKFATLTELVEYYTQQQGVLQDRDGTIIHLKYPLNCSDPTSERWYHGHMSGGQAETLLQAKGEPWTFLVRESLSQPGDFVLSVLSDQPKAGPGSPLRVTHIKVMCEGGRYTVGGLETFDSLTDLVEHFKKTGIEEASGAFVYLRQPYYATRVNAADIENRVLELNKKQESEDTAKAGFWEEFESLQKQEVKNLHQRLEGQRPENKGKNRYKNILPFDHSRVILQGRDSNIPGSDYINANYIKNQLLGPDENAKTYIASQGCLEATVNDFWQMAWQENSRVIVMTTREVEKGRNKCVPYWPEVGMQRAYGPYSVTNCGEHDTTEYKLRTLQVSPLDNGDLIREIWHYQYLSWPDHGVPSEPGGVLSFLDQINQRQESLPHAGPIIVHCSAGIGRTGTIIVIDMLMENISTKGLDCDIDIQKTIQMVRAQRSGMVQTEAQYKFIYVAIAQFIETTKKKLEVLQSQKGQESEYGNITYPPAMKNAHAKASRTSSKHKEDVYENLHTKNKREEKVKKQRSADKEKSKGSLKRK

Row | Compound | EC50 (SHP1) | Maximum Activation Fold (SHP1) | melting point | SHP1 activity (in words) (SHP1)
1 | CCC(O)(CC)CC[C@@H](C)[C@H]1CCC2C3CC=C4C(C)(C)C(N)CC[C@]4(C)C3CC[C@@]21C (stereo partly drawn) [Compound 5at] | 12.9 ± 0.3 µM | 6.50 ± 0.12 fold | > 300 °C | 
2 | CC(C)C(O)CC[C@@H](C)[C@H]1CCC2C3CC=C4C(C)(C)C(N)CC[C@]4(C)C3CC[C@@]21C (stereo partly drawn) [Compound 5aq, (6R)-6-((10R,13R,17R)-3-amino-4,4,10,13-tetramethyl-tetradecahydro-1H-cyclopenta[a]phenanthren-17-yl)-2-methylheptan-3-ol] | 22.1 ± 3.73 µM | 6.32 ± 0.34 fold | > 300 °C | 
3 | C[C@H](CCCOc1ccc(NC(=O)Nc2ccc(Cl)c(C(F)(F)F)c2)cc1)[C@H]1CCC2C3CC=C4C(C)(C)C(N)CC[C@]4(C)C3CC[C@@]21C (stereo partly drawn) [Compound 5ay] | 2.05 ± 0.14 µM | 5.54 ± 0.24 fold | 192.3 to 194.5 °C | 
4 | C[C@H](CCCO)[C@H]1CCC2C3C(O)C=C4C(C)(C)C(N)CC[C@]4(C)C3CC[C@@]21C (stereo partly drawn) [Compound 5ai] | > 50 µM |  | 171.4 to 173.2 °C | 
5 | C[C@H](CCCO)[C@H]1CCC2C3CC=C4C(C)(C)C(NCCO)CC[C@]4(C)C3CC[C@@]21C (stereo partly drawn) [Compound 5ab] | 39.1 ± 3.7 µM |  | 184.3 to 187.5 °C | 
6 | C=CCC(O)(CC=C)CC[C@@H](C)[C@H]1CCC2C3CC=C4C(C)(C)C(N)CC[C@]4(C)C3CC[C@@]21C (stereo partly drawn) [Compound 5av, (7R)-4-allyl-7-((10R,13R,17R)-3-amino-4,4,10,13-tetramethyl-tetradecahydro-1H-cyclopenta[a]phenanthren-17-yl)oct-1-en-4-ol] | 35.8 ± 1.92 µM | 5.90 ± 0.42 fold | 235.5 to 237.4 °C | 
7 | CCCC(O)(CCC)CC[C@@H](C)[C@H]1CCC2C3CC=C4C(C)(C)C(N)CC[C@]4(C)C3CC[C@@]21C (stereo partly drawn) [Compound 5au] | 24.4 ± 3.61 µM | 6.42 ± 0.28 fold | 242.6 to 244.9 °C | 
8 | C[C@H](CCCO)[C@H]1CCC2C3C(=NO)C=C4C(C)(C)C(N)CC[C@]4(C)C3CC[C@@]21C (stereo partly drawn) [Compound 5ah, (10R,13R,17R)-3-amino-17-((R)-5-hydroxypentan-2-yl)-4,4,10,13-tetramethyl-tetradecahydro-7H-cyclopenta[a]phenanthren-7-oxime] | 34.4 ± 2.47 µM | 2.13 ± 0.28 fold | 218.3 to 219.9 °C | 
9 | CCCNCCC[C@@H](C)[C@H]1CCC2C3CC=C4C(C)(C)C(N)CC[C@]4(C)C3CC[C@@]21C (stereo partly drawn) [Compound 5am, (10R,13R,17R)-4,4,10,13-tetramethyl-17-((R)-5-(propylamino)pentan-2-yl)-tetradecahydro-1H-cyclopenta[a]phenanthren-3-amine] | > 50 µM |  | > 300 °C | 
10 | CCC(O)CC[C@@H](C)[C@H]1CCC2C3CC=C4C(C)(C)C(N)CC[C@]4(C)C3CC[C@@]21C (stereo partly drawn) [Compound 5ao] | 15.5 ± 4.38 µM | 6.59 ± 0.48 fold | > 300 °C | 
11 | C[C@H](CO)[C@H]1CCC2C3CC=C4C(C)(C)C(N)CC[C@]4(C)C3CC[C@@]21C (stereo partly drawn) [Compound 5aw] | 35.5 ± 3.15 µM |  | 170.6 to 173.8 °C | 
12 | C=CCC(O)CC[C@@H](C)[C@H]1CCC2C3CC=C4C(C)(C)C(N)CC[C@]4(C)C3CC[C@@]21C (stereo partly drawn) [Compound 5ar, (7R)-7-((10R,13R,17R)-3-amino-4,4,10,13-tetramethyl-tetradecahydro-1H-cyclopenta[a]phenanthren-17-yl)oct-1-en-4-ol] | 12.9 ± 0.75 µM | 6.94 ± 0.17 fold | 250.4 to 252.6 °C | 
13 | CC(O)CC[C@@H](C)[C@H]1CCC2C3CC=C4C(C)(C)C(N)CC[C@]4(C)C3CC[C@@]21C (stereo partly drawn) [Compound 5an] | 17.6 ± 1.75 µM | 6.33 ± 0.01 fold | > 300 °C | 
14 | CCCC(O)CC[C@@H](C)[C@H]1CCC2C3CC=C4C(C)(C)C(N)CC[C@]4(C)C3CC[C@@]21C (stereo partly drawn) [Compound 5ap] | 38.1 ± 3.76 µM | 6.65 ± 0.35 fold | > 300 °C | 
15 | C[C@H](CCCO)[C@H]1CCC2C3CC=C4C(C)(C)C(N)CC[C@]4(C)C3CC[C@@]21C (stereo partly drawn) [Compound 5aa] | 19.2 ± 4.59 µM | 6.03 ± 0.87 fold | 163.5 to 166.3 °C | 
16 | C[C@H](CCCO)[C@H]1CCC2C3CC=C4C(C)(C)C(NCCCO)CC[C@]4(C)C3CC[C@@]21C (stereo partly drawn) [Compound 5ac] | 30.7 ± 3.8 µM |  | 183.5 to 186.8 °C | 
17 | C[C@H](CCCO)[C@H]1CCC2C3C(N)C=C4C(C)(C)C(N)CC[C@]4(C)C3CC[C@@]21C (stereo partly drawn) [Compound 5aj] | > 50 µM |  | 178.7 to 180.2 °C | 
18 | C[C@H](CCC(C)(C)O)[C@H]1CCC2C3CC=C4C(C)(C)C(N)CC[C@]4(C)C3CC[C@@]21C (stereo partly drawn) [Compound 5as, (5R)-5-((10R,13R,17R)-3-amino-4,4,10,13-tetramethyl-tetradecahydro-1H-cyclopenta[a]phenanthren-17-yl)-2-methylhexan-2-ol] | 22 ± 3.84 µM | 5.73 ± 0.32 fold | 215.2 to 217.6 °C | 
19 | C[C@H](CCCO)[C@H]1CCC2C3=CC=C4C(C)(C)C(N)CC[C@]4(C)C3CC[C@@]21C (stereo partly drawn) [Compound 5ak, (4R)-4-((10R,13R,17R)-3-amino-4,4,10,13-tetramethyl-2,3,4,9,10,11,12,13,14,15,16,17-dodecahydro-1H-cyclopenta[a]phenanthren-17-yl)pentan-1-ol] | 20 ± 3.34 µM | 7.74 fold and 7.74 ± 0.20 fold | 179.5 to 181.3 °C | 
20 | CNC(=O)CC[C@@H](C)[C@H]1CCC2C3CC=C4C(C)(C)C(N)CC[C@]4(C)C3CC[C@@]21C (stereo partly drawn) [Compound 5al] | 40.5 ± 6.58 µM | 6.42 ± 0.28 fold | > 300 °C | 
21 | C[C@H](CCCO)[C@H]1CCC2C3CC=C4C(C)(C)C(N5CCC5)CC[C@]4(C)C3CC[C@@]21C (stereo partly drawn) [Compound 5af] | > 50 µM |  | 174.9 to 177.6 °C | 
22 | C[C@H](CCCO)[C@H]1CCC2C3CC=C4C(C)(C)C(NC(=O)Nc5ccc(Cl)c(C(F)(F)F)c5)CC[C@]4(C)C3CC[C@@]21C (stereo partly drawn) [Compound 5ax, 1-(4-chloro-3-(trifluoromethyl)phenyl)-3-((10R,13R,17R)-17-((R)-5-hydroxypentan-2-yl)-4,4,10,13-tetramethyl-2,3,4,7,8,9,10,11,12,13,14,15,16,17-tetradecahydro-1H-cyclopenta[a]phenanthren-3-yl)urea] | > 50 µM |  | 221.1 to 223.7 °C | no activity
23 | C[C@H](CCCO)[C@H]1CCC2C3CC=C4C(C)(C)C(NCCCCl)CC[C@]4(C)C3CC[C@@]21C (stereo partly drawn) [Compound 5ad] | 47.34 ± 0.34 µM |  | 162.7 to 165.5 °C | 
24 | CCCNC1CC[C@@]2(C)C(=CCC3C2CC[C@@]2(C)C3CC[C@@H]2[C@H](C)CCCO)C1(C)C (stereo partly drawn) [Compound 5ae, (4R)-4-((10R,13R,17R)-4,4,10,13-tetramethyl-3-(propylamino)-tetradecahydro-1H-cyclopenta[a]phenanthren-17-yl)pentan-1-ol] | > 50 µM |  | 147.5 to 150.4 °C | 
25 | C[C@H](CCCO)[C@H]1CCC2C3C(=O)C=C4C(C)(C)C(N)CC[C@]4(C)C3CC[C@@]21C (stereo partly drawn) [Compound 5ag, (10R,13R,17R)-3-amino-17-((R)-5-hydroxypentan-2-yl)-4,4,10,13-tetramethyl-tetradecahydro-7H-cyclopenta[a]phenanthren-7-one] | 33.8 ± 2.93 µM | 1.84 ± 0.11 fold | 151.3 to 153.7 °C | 
